Measurements published in article PMC9504268, “Testing the Protective Effects of Sulfobutylether-Βeta-Cyclodextrin (SBECD) and Sugammadex against Chlorpromazine-Induced Acute Toxicity in SH-SY5Y Cell Line and in NMRI Mice” (Pharmaceutics, 2022).
Structures can show the parent of a compound that is named as a salt. Where two headings read alike, the source gives them in different places.

Key:
[1] = design: method as in PMID 31726616, PMID 36031178; details: complexes with zearalenone; cited from earlier work
HeLa cells = tested on: HeLa cells; design: method as in PMID 36031178; details: cited from earlier work
[2] = tested on: several different cell lines; design: method as in PMID 4801078, PMID 6896707, PMID 23689352; details: cited from earlier work
mice = tested on: mice; design: method as in PMID 5630492, PMID 13813939; details: cited from earlier work
NMRI mice = assay: in vivo; assay type: in vivo; details: typically
Description: (§1) Female NMRI mice weighing 25–35 g were used for the experiments. Animals were kept in the Laboratory Animal House of the Department of Pharmacology and Pharmacotherapy (University of Pécs) under standard pathogen-free conditions, and were provided with food pellets and water ad libitum. Mice were weighed then treated intraperitoneally (i.p.) with CPZ (120–300 mg/kg, 10 mL/kg, dissolved in physiological saline). Since CPZ typically provoked convulsions after 2 min, SBECD or SGD (500 or 2000 mg/kg, 10 mL/kg, dissolved in physiological saline) was administered i.v. immediately after the CPZ treatment. Control animals were treated with physiological saline (10 mL/kg i.p. and/or i.v.). Before and after the treatment, mice could consume feed and water ad libitum.
(§2) We decided to administer CPZ intraperitoneally because it leads to the more rapid appearance of the drug in the systemic circulation compared to the per os treatment. […] However, we applied CDs (SBECD or SGD) intravenously to produce immediately their high plasma concentrations as well as to avoid any potential local interactions of CDs with CPZ in the abdominal cavity.
(§3) In agreement with the 3Rs, the up-and-down method was used. One animal is treated at a time, starting around the LD50 value estimated. If the animal survived, then the following animal was treated with a higher dose. If the animal died, then the following animal was treated with a lower dose. This method provides a good estimation of LD50, while the number of animals sacrificed can be minimized. LD50 values were determined with the Probit Analysis (CI = 95%) as has been reported.

in vivo = assay type: in vivo, mice; details: female, NMRI, mouse, in vivo, female NMRI mice, read-out: LD50 (based on 24 h mortality)
Description: as §1, §2, §3

SH-SY5Y cells [3] = assay: SH-SY5Y cell viability based on total protein levels (fluorescamine); design: species or system human; details: 24 h
Description: The SH-SY5Y cell line (neuroblastoma, human; ATCC: CRL-2266) was maintained in DMEM supplemented with 10% FBS, penicillin (100 U/mL) and streptomycin (100 µg/mL) and incubated at 37 °C in a humidified environment with 5% CO2. Cells were trypsinized then transferred to 96-well plates (10^4 cells/well). Next day, the medium has been replaced and cells were treated for 24 h with CPZ (0–100 μM), with CDs (0–1500 μM), or with the combinations of CPZ and CDs (final volume: 200 μL/well). After 24 h treatment of cells with CPZ and/or CDs, cells were washed three times with 200 μL of PBS (pH 7.4; also containing 0.18 g/L CaCl2, and 0.2 g/L MgCl2). […]
Since certain compounds can modify cellular ATP levels (which can disrupt the correlation of ATP concentration with the number of living cells), total protein measurements were also performed to confirm the ATP-based results. Total protein levels were determined with fluorescamine (Fluram) reagent, as has been previously reported. […] After homogenization, the fluorescence signals of these samples were determined with Enspire Multimode plate reader (PerkinElmer) employing 385 nm and 490 nm as excitation and emission wavelengths, respectively. Total protein concentrations were determined based on bovine serum albumin calibration curve. […]

SH-SY5Y cells [4] = assay: SH-SY5Y cell viability based on cellular ATP levels (luciferin-luciferase); design: species or system human; details: 24 h
Description: The SH-SY5Y cell line (neuroblastoma, human; ATCC: CRL-2266) was maintained in DMEM supplemented with 10% FBS, penicillin (100 U/mL) and streptomycin (100 µg/mL) and incubated at 37 °C in a humidified environment with 5% CO2. Cells were trypsinized then transferred to 96-well plates (10^4 cells/well). Next day, the medium has been replaced and cells were treated for 24 h with CPZ (0–100 μM), with CDs (0–1500 μM), or with the combinations of CPZ and CDs (final volume: 200 μL/well). After 24 h treatment of cells with CPZ and/or CDs, cells were washed three times with 200 μL of PBS (pH 7.4; also containing 0.18 g/L CaCl2, and 0.2 g/L MgCl2). Since cell death results in the detachment of cells from the plate, these floating cells and cell debris were removed from the well during these washing steps. Cells were lysed with 200 μL of borate buffer (0.2 M, pH 9.2) containing Triton X-100 (0.1%) detergent and ethylenediaminetetraacetic acid (EDTA, 20 mM), then the plate was placed in a shaker for 5 min. These lysates were applied in cellular ATP and total protein analyses.
The changes in cell viability were primarily evaluated based on ATP levels. ATP content is an indicator of metabolically active cells; therefore, cellular ATP concentration is a suitable parameter to assess the number of viable cells. ATP levels were quantified based on the luciferin-luciferase reaction adapted for microplate method, as has been described earlier. To quantify cellular ATP concentrations, a 10 μL/well volume of lysates was transferred into white 96-well optical plates (VWR, Debrecen, Hungary), after which 100 μL/well of the dissolved ATP reagent was added. Luminescence data of ATP standards and samples were measured with 5 s integration time, employing an Enspire Multimode reader (Perkin Elmer, Waltham, MA, US).
IC50 values were determined by sigmoidal fitting (Hill1) employing the Origin software (OriginLab Corporation, Northampton, MA, US). Statistical analyses were performed employing one-way ANOVA (with Tukey post hoc) test using the IBM SPSS Statistics software (Armonk, NY, US), where the level of significance was set as p < 0.01.

[5] = design: method as in PMID 16553456; details: in regard to cholesterol; cited from earlier work
[6] = veratridine toxin–CD complexes; cited from earlier work
[7] = design: method as in PMID 32376444; details: CPZ complex, cited from earlier work
[8] = Homo sapiens, SH-SY5Y cells, sigmoidal fitting

In the case of succinyl–methyl-β-CD, the binding constant [1] is given as 10000 to 50000 L/mol.
For `OC[C@H]1O[C@@H]2O[C@H]3[C@H](O)[C@@H](O)[C@@H](O[C@H]4[C@H](O)[C@@H](O)[C@@H](O[C@H]5[C@H](O)[C@@H](O)[C@@H](O[C@H]6[C@H](O)[C@@H](O)[C@@H](O[C@H]7[C@H](O)[C@@H](O)[C@@H](O[C@H]8[C@H](O)[C@@H](O)[C@@H](O[C@H]1[C@H](O)[C@H]2O)O[C@@H]8CO)O[C@@H]7CO)O[C@@H]6CO)O[C@@H]5CO)O[C@@H]4CO)O[C@@H]3CO` [β-CD], the “effect on alternariol-induced cytotoxicity” value (HeLa cells) is given as “did not affect”.
In the case of `CN(C)CCCN1c2ccccc2Sc2ccc(Cl)cc21` [CPZ, Chlorpromazine hydrochloride], the “concentration range of significant toxic effects” value [2] is listed as 10 to 60 µM, the “i.p. LD50” value (mice) is listed as 150 to 220 mg/kg and the “time after which CPZ provoked convulsions” value (NMRI mice; CPZ i.p. 120–300 mg/kg) is listed as 2 min. For the same molecule, the “time in which CPZ caused its lethal impact” value (NMRI mice; CPZ i.p., with a few exceptions) was ≤ 2 h, the LD50 (in vivo; 500 mg/kg, CPZ i.p. + 500 mg/kg SBECD i.v.) was 206 mg/kg and the LD50 (in vivo; 500 mg/kg, CPZ i.p. + 500 mg/kg SGD i.v.) was 200 mg/kg. For the same molecule, the LD50 (in vivo; 2000 mg/kg, CPZ i.p. + 2000 mg/kg SBECD i.v.) was 233 mg/kg, the LD50 (in vivo; 2000 mg/kg, CPZ i.p. + 2000 mg/kg SGD i.v.) was 172 mg/kg and the LD50 (in vivo; CPZ i.p., control (physiological saline i.v.)) was 194 mg/kg. For the same molecule, the “decrease in total protein levels” value (SH-SY5Y cells [3]; 20 μM CPZ) was “approximately 60%”, the IC50 (SH-SY5Y cells [3]; [8]) was 15.1 µM and the “concentration showing close the maximal toxicity” value (SH-SY5Y cells [4]; 0–100 μM tested) was 50 µM. For the same molecule, the “lowest concentration causing statistically significant (p < 0.01) decrease of ATP and total protein levels/well” value (SH-SY5Y cells [4]; 0–100 μM tested) was 5 µM, the “decrease in ATP levels” value (SH-SY5Y cells [4]; 20 μM CPZ) was “approximately 60%” and the IC50 (SH-SY5Y cells [4]; [8]) was 16 µM.
For `CC(O)COC[C@H]1O[C@@H]2O[C@H]3[C@H](O)[C@@H](O)[C@@H](O[C@H]4[C@H](O)[C@@H](O)[C@@H](O[C@H]5[C@H](O)[C@@H](O)[C@@H](O[C@H]6[C@H](O)[C@@H](O)[C@@H](O[C@H]7[C@H](O)[C@@H](O)[C@@H](O[C@H]8[C@H](O)[C@@H](O)[C@@H](O[C@H]1[C@H](O)[C@H]2O)O[C@@H]8COCC(C)O)O[C@@H]7COCC(C)O)O[C@@H]6COCC(C)O)O[C@@H]5COCC(C)O)O[C@@H]4COCC(C)O)O[C@@H]3COCC(C)O` (stereo partly drawn) [HPBCD, hydroxypropyl-β-CD], the binding constant [5] is given as 20000 L/mol.
In the case of `OC[C@H]1O[C@@H]2O[C@H]3[C@H](O)[C@@H](O)[C@@H](O[C@H]4[C@H](O)[C@@H](O)[C@@H](O[C@H]5[C@H](O)[C@@H](O)[C@@H](O[C@H]6[C@H](O)[C@@H](O)[C@@H](O[C@H]7[C@H](O)[C@@H](O)[C@@H](O[C@H]8[C@H](O)[C@@H](O)[C@@H](O[C@H]9[C@H](O)[C@@H](O)[C@@H](O[C@H]1[C@H](O)[C@H]2O)O[C@@H]9CO)O[C@@H]8CO)O[C@@H]7CO)O[C@@H]6CO)O[C@@H]5CO)O[C@@H]4CO)O[C@@H]3CO` [γ-CD], the “binding constant (K)” value [6] is given as “approximately 10^4 L/mol”, the “binding constant (K), 1:1 complexes” value ([7]; 1:1) is given as 500 L/mol and the “binding constant (K), 1:2 complexes” value ([7]; 1:2) is given as 6000 L/mol.
For dimethyl-β-CD, the binding constant [5] is listed as 600000 L/mol.
For methyl-β-CD, the binding constant [1] is listed as 10000 to 50000 L/mol.
